US20200216496A1, “Antibacterial Compounds Produced by the Microorganism Strain Corallococcus Coralloides ST201330 (DSM 24989)” (Sanofi, priority 2017, published 2020)
*1 amine or outer side, *2 acyl side, *3 side chain or, on linkers, in order; H or OH if unused. Where a SMILES comes first, the peptide text is derived from it. [ ]: non-standard residue; d: D form. The star is where a group is joined. ξ: configuration not given here. X2 = Cn1cncc1C(O)C(N[*:1])C(=O)[*:2]; X3 = COC(CN[*:1])C(O)C(O)C(=O)[*:2]; ξVal(3-OH) = CC(C)(O)C(N)C(=O)O; NMeF = CN[CH](Cc1ccccc1)C(=O)O; X4 = O=C(C(O)N[*:1])[*:2]; X1 = CC(O)C(O)C(=O)*

How the values were obtained:
E. coli strain ATCC35218 = format: cell-based, Escherichia coli
Description: The present in vitro test identifies molecules having antimicrobial activity on the microorganisms by quantification of the culture optical density. Optical density compared to a vial with the same medium non inoculated by bacteria is an indicator of the bacterial growth. Minimal inhibitory concentrations were evaluated following the CLSI and EUCAST guidelines. Bacterial inoculum were prepared by overnight culture in cation-adjusted Mueller-Hinton II (MHII) medium from colonies isolated from colonies on agar plates, then diluted to evaluate the colony forming units (cfu) using the McFarland turbidity standard. A 96 well plate was inoculated with 100 μl of 5.105 cfu/ml in MHII, and test compounds prepared by serial dilution at 100× concentration in DMSO. After a 20-22 h incubation, optical density was evaluated on a microplate reader and the MIC endpoint was determined as the lowest concentration of antibiotic at which there is no visible growth in duplicates, meaning that optical density differs no more from negative controls than 10% of the difference in optical density between negative controls (medium, no bacteria) and positive control (bacteria in medium, no antibiotics).

[1] = system: Escherichia coli ATCC 35218; assay: Antibacterial activity against Escherichia coli: inhibitory activity (IC80), broth microdilution, absorbance at 590 nm; format: cell-based; conditions: Mueller Hinton broth, 37° C., 20 hours, growth inhibited by 80%
Description: A stock solution of 1000 μg/ml of the test compound was prepared in methanol. The test strain (Escherichia coli ATCC 35218) was stored at −80° C. The inoculum was prepared from a fresh liquid preculture. The preculture was prepared from a bead of the material stored at −80° C. and 30 ml of nutrient medium (Mueller Hinton broth, Difco) and incubated at 37° C. and 180 rpm for 18 hours. The inoculum was adjusted to an optical density (OD) of 0.2 at a wavelength of 600 nm. For this, the inoculum was adjusted to a value of 10^8 CFU/ml (CFU: colony forming units). After the adjustment of the inoculum, the suspension was diluted with nutrient solution (Mueller Hinton broth, Difco) in a ratio of 1:10000. The microtiter plate was inoculated within 15 min of preparation of the inoculum. The exact colony count was determined by means of surface culture. Using the stock solution of the test compound and the nutrient medium (Mueller Hinton broth, Difco), a dilution series was prepared beforehand on the microtiter plate. […] The microtiter plates were read with the aid of a photometer at a wavelength of 590 nm by measurement of the absorption. IC80 values were subsequently calculated from the values of the dilution series according to a standard process as the concentration of the test compound which is necessary in order to inhibit the growth of the test organism Escherichia coli by 80%.

Row | SMILES | Absorbance MIC (E. coli strain ATCC35218) | IC80 for inhibition of Escherichia coli ATCC 35218 [1]
1 | COC(CNC(=O)C(NC(=O)C(O)C(C)O)C(O)c1cncn1C)C(O)C(O)C(=O)N(C)C(Cc1ccccc1)C(=O)NCC(=O)NC(C(=O)NC(CO)C(=O)NC(C(=O)NC(CC(C)C)C(=O)NC(CO)C(=O)O)C(C)(C)O)C(C)(C)O (stereo not drawn) [formula Ia] (X1-[X2][X3][NMeF]G[ξVal(3-OH)]S[ξVal(3-OH)]LS-OH; configuration not given here) | 1 to 4 µg/mL | 
2 | COC(CNC(=O)C(NC(=O)C(O)C(C)O)C(O)c1cncn1C)C(O)C(O)C(=O)N(C)C(Cc1ccccc1)C(=O)NC(O)C(=O)NC(C(=O)NC(CO)C(=O)NC(C(=O)NC(CC(C)C)C(=O)NC(CO)C(=O)O)C(C)(C)O)C(C)(C)O (stereo not drawn) [formula Ib] (X1-[X2][X3][NMeF][X4][ξVal(3-OH)]S[ξVal(3-OH)]LS-OH; configuration not given here) | 8 µg/mL | 0.71 µg/mL
